Data reported in patent US8258100B2, “Ligand/lytic peptide methods of use” (Board of Supervisors of Louisiana State University and …, priority 1997, dated 2012).
Where a SMILES comes first, the peptide text is derived from it. Where no end group is shown, it is not given here.

Key:
LNCaP FGC cells = experiment: in vitro lysis of human prostate cancer cells, Trypan blue exclusion; assay type: cell-based
From the text: (§1) LNCaP FGC and DU145 human prostate cancer cell lines were purchased from the American Type Culture Collection (ATCC, Rockville Md.), ATCC accession numbers CRL 1740 and HTB-81, respectively. The LNCaP FGC adenocarcinoma cell line was originally obtained from a person. LNCaP FGC cells are sensitive to dihydrotestosterone and to estrogens (A+). The DU145 carcinoma was originally isolated from the brain of a person with metastatic carcinoma of the prostate; this cell line is not sensitive to steroid hormones (A−).
(§2) Cells were detached from culture flasks, and 1000 cells/well were transferred to 24 well culture plates. The cells were incubated for 24 hours with 10% calf serum. Cells were subsequently incubated without serum for 48 hours. Cells were then incubated for 22 hours with one of the following treatments:
(§3) Trypan blue exclusion was used to assess viability of the cells after treatment. […] However, treatment with a lytic peptide alone may not be selective in vivo unless specific cell types are separately stimulated, for example by hormones controlling their activity.

DU145 cells = experiment: as above; assay type: cell-based; conditions: 22 hours; GnRH-hecate 50 μM; free hecate 30 μM; hecate-bLH 90 or 60 μM
From the text: as §1, §2, §3

bovine granulosa cells = experiment: in vitro lysis of bovine granulosa cells; assay type: cell-based; conditions: 1 μM
From the text: We also studied in vitro lysis of bovine granulosa cells with GnRH-hecate conjugate and with hecate-bLH conjugate. Granulosa cells were isolated from bovine pre-ovulatory follicles. (Granulosa cells are hormonally active cells with numerous LH receptors.) Our experiments with granulosa cells were otherwise generally similar to those described above for Examples 24-31.

[1] = system: bovine small luteal cells; experiment: in vitro lysis of bovine small luteal cells (Trypan Blue exclusion, lactic dehydrogenase release); assay type: cell-based, cattle; conditions: 22 hr
Description: We studied in vitro lysis of bovine luteal cells with GnRH-hecate conjugate and with hecate-bLH conjugate (SEQ. ID NO. 12). (The bLH component of the conjugate is a 15-mer fragment of the beta chain of luteinizing hormone, SEQ. ID NO. 11). Small luteal cells were collected from cattle corpora lutea post-slaughter.
Small luteal cells in culture were incubated with one of the following treatments for 22 hours, and were then examined for viability using Trypan Blue exclusion and release of lactic dehydrogenase.

GnRH receptor = biological target: T1, GnRH receptor (Rattus norvegicus, UniProt P30969); experiment: displacement of radiolabelled monoiodinated-GnRH from rat pituitary membranes; assay type: binding
T1 construct: specifically displaced radiolabelled monoiodinated-GnRH from rat pituitary membranes; from tissue; host or cells: rat pituitary membranes
T1 sequence (P30969 1-327): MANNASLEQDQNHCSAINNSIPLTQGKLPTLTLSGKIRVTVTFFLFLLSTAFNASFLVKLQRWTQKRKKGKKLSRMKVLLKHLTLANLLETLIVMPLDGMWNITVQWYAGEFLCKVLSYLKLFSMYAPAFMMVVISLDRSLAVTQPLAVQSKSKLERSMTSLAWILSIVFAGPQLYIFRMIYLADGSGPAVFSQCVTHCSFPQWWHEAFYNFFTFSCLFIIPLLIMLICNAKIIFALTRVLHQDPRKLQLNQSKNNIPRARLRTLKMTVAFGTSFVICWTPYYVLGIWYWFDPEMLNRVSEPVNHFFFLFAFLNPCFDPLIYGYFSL
From the text: We also synthesized D-Lys^6GnRH (SEQ. ID NO. 13), so that hecate could be conjugated to the D-Lys^6, a position that could minimize interference with binding of the GnRH domain to the GnRH receptor. These synthetic peptides specifically displaced radiolabelled monoiodinated-GnRH from rat pituitary membranes.

Diatraea saccharalis = experiment: fertility of sugar cane borer after inoculation of late-stage pupae; assay type: in vivo; conditions: 10 pupae inoculated, 1.0 μL of 1.35 mM peptide in saline
Description: Late-stage Diatraea saccharalis (sugar cane borer) pupae were inoculated with 1.0 μL of saline solution containing 1.35 mM concentration of peptide as stated, or saline alone as control. The pupae were allowed to complete metamorphosis. […] Adult female moths were allowed to mate with treated males, and then lay eggs. The viability of the eggs was measured by counting the number hatching into larvae.

[2] = system: Sprague-Dawley female rats; experiment: Sprague-Dawley female rats, single intravenous treatment, necropsy at 48 or 96 hours, PAS stain of pituitary; assay type: in vivo, rat; conditions: D-hecate 674 μg, GnRH 334 μg, GnRH-hecate 1 mg
Description: Eight sexually mature, Sprague-Dawley female rats were randomly assigned to one of eight treatments. Each group of rats received a single treatment intravenously, as described below. Rats were sacrificed and necropsied either 48 or 96 hours after treatment. The ovaries, uterus, pancreas, liver, spleen, lungs, heart, thyroid, and adrenal glands were fixed in 10% buffered formalin; sectioned; and stained with H&E (hematoxylin and eosin) stain; except that the pituitary glands were stained with PAS (periodic acid-Schiff) stain with no counter-stain. The treatments were selected so that each animal received an equimolar amount of the compound with which it was treated.

[3] = system: LH receptors on the target granulosa cells; experiment: steroid hormone production by granulosa cells; assay type: cell-based, bovine; conditions: data not shown
From the text: (§4) Stimulation of target cell hormone production was not required for cell lysis.

LH receptors = biological target: T2, LH receptors (Bos taurus, UniProt Q28005); experiment: binding of bLH fragment to LH receptors on granulosa cells; set-up: species or system bovine; conditions: data not shown
T2 construct: endogenous in cells; host or cells: primary bovine granulosa cells from pre-ovulatory follicles
T2 sequence (Q28005 27-701): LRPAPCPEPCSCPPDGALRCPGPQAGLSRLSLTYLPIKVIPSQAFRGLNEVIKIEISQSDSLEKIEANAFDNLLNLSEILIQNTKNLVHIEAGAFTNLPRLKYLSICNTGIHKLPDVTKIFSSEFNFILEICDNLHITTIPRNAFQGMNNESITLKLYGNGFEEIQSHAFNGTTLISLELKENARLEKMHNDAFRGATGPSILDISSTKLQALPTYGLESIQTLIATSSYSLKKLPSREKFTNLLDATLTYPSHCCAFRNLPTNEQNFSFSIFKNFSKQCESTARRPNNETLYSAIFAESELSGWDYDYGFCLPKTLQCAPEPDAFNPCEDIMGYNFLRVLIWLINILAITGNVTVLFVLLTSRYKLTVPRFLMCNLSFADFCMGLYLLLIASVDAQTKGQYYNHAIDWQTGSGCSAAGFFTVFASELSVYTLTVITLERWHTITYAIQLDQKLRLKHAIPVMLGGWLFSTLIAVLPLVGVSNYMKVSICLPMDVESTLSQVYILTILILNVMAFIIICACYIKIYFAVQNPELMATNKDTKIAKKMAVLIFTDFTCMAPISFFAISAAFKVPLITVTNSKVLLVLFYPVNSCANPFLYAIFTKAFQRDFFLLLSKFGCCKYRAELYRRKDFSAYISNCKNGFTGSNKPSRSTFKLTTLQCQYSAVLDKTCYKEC
From the text: as §4

[4] = system: female New Zealand rabbits; experiment: mature female New Zealand rabbits, intravenous GnRH-hecate, GnRH challenge day 46, necropsy day 47; assay type: in vivo, rabbit; conditions: 5 or 10 mg IV
Description: Seven sexually mature female New Zealand rabbits were injected intravenously with saline containing GnRH-hecate as follows:
Forty-six days later all rabbits were injected intramuscularly with 100 μg GnRH. Blood samples were collected at 0, 1, 4, and 24 hours, and LH and FSH levels in the blood samples were measured by radioimmunoassay. […] The rabbits were sacrificed the next day (day 47) for postmortem histological analysis. […] Ovarian and pituitary weights were reduced by the 10 mg GnRH-hecate treatment.

female rabbits = experiment: mature female rabbits, intravenous GnRH-hecate, GnRH challenge day 6, sacrifice day 7; assay type: in vivo, rabbit; conditions: 10 mg IV
Description: Nine sexually mature female rabbits were injected intravenously with saline containing 0 mg (n=4) (Treatment 46) or 10 mg GnRH-hecate (n=5) (Treatment 47). Rabbits were injected intramuscularly with GnRH on day 6 posttreatment. Blood samples were collected for radioimmunoassay of LH and FSH as described above, and the animals were sacrificed on day 7 post-treatment. […] The effects of GnRH-hecate on CNS morphology and immunocytochemical results were similar to those described above in Examples 34-45. Again, the effects were more pronounced on GnRH neurons than on staining of pituitary gonadotropes.

[5] = system: sexually immature female rats; experiment: immature female rats, intravenous GnRH-hecate dose series; assay type: in vivo, rat; conditions: 0.1 to 1.5 mg IV, 24 hours or 14 days
Description: Sexually immature (33 day old) female rats (randomly allocated into groups of three) were injected intravenously with saline or GnRH-hecate in saline as follows:
Animals were sacrificed at 24 hours or at 14 days after treatment. […] In the rats sacrificed fourteen days after treatment, 66% and 87% of the GnRH-receptor-containing neurons were abnormal in the rats that had received 1.0 and 1.5 mg of GnRH-hecate, respectively. Axonal degeneration in the 1.5 mg GnRH-hecate group was accompanied by over 90% reduction in median eminence staining for GnRH.

[6] = system: sexually immature female rats; experiment: immature female rats, intravenous GnRH-hecate or GnRH then hecate, histology and immunocytochemistry at 14 days; assay type: in vivo, rat; conditions: as E29
Description: Another set of experiments was performed to study the in vivo effects of the GnRH-hecate conjugate on female rats and rabbits. The ovaries, uterus, oviducts, adrenals, spleen, thyroids, pancreas, liver, lungs, and heart were processed for histological analysis. […] The immunocytochemical staining procedures we used followed generally the procedures of M. Rahmanian et al., “Histological and immunocytochemical characterization of pituitary cell types in ponies,” Proc. 13th Soc. Equine Nutrition & Phys. Symp., pp. 348-349 (1993); M. Rahmanian et al., “Immunocytochemical localization of luteinizing hormone and follicle-stimulating hormone in the equine pituitary,” J. Anim. Sci., vol. 76, pp. 839-846 (1998); M. Rahmanian et al., “Immunocytochemical localization of prolactin and growth hormone in the equine pituitary,” Animal Sci., vol. 75, pp. 3010-3018 (1997); and P. Melrose et al., “Comparative topography of the immunoreactive alpha-melanocyte-stimulating hormone neuronal system in the brains of horses and rats,” Brain Beh. & Evol., vol. 32, pp. 226-235 (1988).
Brains were serially sectioned on a Vibrotome from the level of the diagonal band of Broca to the mammillary body. […]

hecate-bLH: conjugate of hecate and a 15-mer fragment of the beta chain of luteinizing hormone (SEQ. ID NO. 12) (FALALKALKKALKKLKKALKKALSYAVALSCQCALCRR)
killing of cells (viability) (LNCaP FGC cells; 22 hours, GnRH-hecate 50 μM, hecate-bLH 90 or 60 μM): had little effect | sensitivity of cells to conjugate (LNCaP FGC cells; FSH pre-treatment, followed by 90 μM hecate-bLH): more sensitive to the hecate-bLH conjugate than those that were not pre-treated | killing of cells (viability) (DU145 cells): killed almost all DU145 cells | levels of lactic dehydrogenase released (bovine granulosa cells): significantly higher than the levels of enzyme released following treatment with 1 μM hecate alone | number of target cells killed relative to hecate alone (bovine granulosa cells): about twice the number of target cells as did hecate alone | number of cells killed relative to hecate alone at the same concentrations ([1]; 10, 5, 1 μM): approximately twice the number of cells as were killed by hecate alone | lactic dehydrogenase activity (cell killing) ([1]; versus hecate alone): killed a significantly greater number of cells than did hecate alone | cell death of small luteal cells versus hecate alone ([1]; all three doses (10, 5, 1 μM)): significant increases in cell death as compared to treatment with hecate alone

D-Lys^6GnRH: GnRH analog with D-Lys at position 6 (SEQ. ID NO. 13)
displacement of radiolabelled peptide relative to equimolar native GnRH (GnRH receptor; molar basis over a 1000-fold concentration range (n=6)): 187%±8%

CC(C)C[C@@H](NC(=O)[C@@H](C)NC(=O)[C@@H](CCCCN)NC(=O)[C@@H](CCCCN)NC(=O)[C@@H](CC(C)C)NC(=O)[C@@H](C)NC(=O)[C@@H](CCCCN)NC(=O)[C@@H](CCCCN)NC(=O)[C@@H](CC(C)C)NC(=O)[C@@H](CCCCN)NC(=O)[C@@H](CCCCN)NC(=O)[C@@H](CC(C)C)NC(=O)[C@@H](C)NC(=O)[C@@H](CCCCN)NC(=O)[C@@H](CCCCN)NC(=O)[C@@H](CC(C)C)NC(=O)[C@@H](C)NC(=O)[C@@H](CCCCN)NC(=O)[C@@H](CC(C)C)NC(=O)[C@@H](C)NC(=O)[C@@H](CC(C)C)NC(=O)[C@@H](C)NC(=O)[C@H](N)Cc1ccccc1)C(=O)O [D-hecate, reference compound] (HELM PEPTIDE1{[dF].[dA].[dL].[dA].[dL].[dK].[dA].[dL].[dK].[dK].[dA].[dL].[dK].[dK].[dL].[dK].[dK].[dA].[dL].[dK].[dK].[dA].[dL]}$$$$V2.0)
pupae completing metamorphosis into adult moths (Diatraea saccharalis): Six | gross lesions in the organs [2]: No gross lesions

D-Lys^6GnRH-hecate: hecate conjugated to the D-Lys^6 of D-Lys^6GnRH
displacement of radiolabelled monoiodinated-GnRH, as measured by cpm (GnRH receptor; rat pituitary membranes): comparable to (and actually slightly greater than) displacement by native mammalian GnRH

15-mer fragment of the bLH subunit: 15-mer fragment of the beta chain of luteinizing hormone, receptor binding site (SEQ. ID NO. 11) (SYAVALSCQCALCRR)
production of steroid hormones [3]: did not initiate the production of steroid hormones | binding to LH receptors on granulosa cells (LH receptors): specifically bound to LH receptors

QHWSYGLRPGFALALKALKKALKKLKKALKKAL [GnRH-hecate]
hippocampus and other areas of the brain containing high concentrations of GnRH [4]: not discernibly affected | pupae completing metamorphosis into adult moths (Diatraea saccharalis): Eight | effects on peripheral tissues or pituitary weight (female rabbits): No effects were noticed | gross lesions in the organs [2]: No gross lesions were noted in the organs of any of the four animals, other than the pituitary | VP staining in the CNS [5]: not altered | C1 and C3 fields of the hippocampus [6]: histological damage to cells | pathological changes in other tissues [6]: No pathological changes were noted in any other tissues
